Source: US20260021119A1, “TETRACYCLINE DERIVATIVES” (ICM (INSTITUT DU CERVEAU ET DE LA MOELLE ÉPINIÈRE), priority 2022, published 2026)

Key:
[1] = system: p-tau (phosphorylated tau protein at Ser202, Thr205 residues); assay: p-tau (AT8) expression in cultured cortical neurons under oxidative stress; type: cell-based, mouse; set-up: key to Reduction of the % of p-tau+ somas: a favorable response, synonymous with a decrease in the number of p-tau+ cell bodies; ++: a favorable response, synonymous with a decrease in the number of p-tau+ cell bodies; +++=reference level; an unfavorable response is represented by a sign “−”, synonymous with an elevation of the number of p-tau+ cell bodies; overexpression of p-tau in cortical cell bodies: dose or concentration left out as unconfirmed
Method: A culture model of cortical neurons from mouse embryonic brain was used, in which neuronal cells were subjected to a maturation step until day in vitro (div) 7, before being gradually exposed to phenol red formulated DMEM/Nutrient mixture F12 Ham supplemented with 20 μg/mL of insulin, and 2 μM of the NMDA receptor blocker MK-801 (DF12i).
Precisely, after 4 days of exposure to DF12i, between 10-15% of surviving neurons show a very strong AT8 immunosignal in their somas while only 1 to 1.5% of neuronal cell bodies are found immunopositive under conditions where oxidative stress is repressed by treatment with bovine apotransferrin (APO; 100 µg/mL, Sigma Aldrich), a glycoprotein with iron chelating properties. Likewise, overexpression of p-tau in cortical cell bodies is reduced by the two non-antibiotic tetracyclines compound of formula (C) ([…]) and compound of formula (Ib) ([…]): see the following Table: […]

alpha-synuclein [2] = biological target: T1, alpha-synuclein (Homo sapiens, UniProt P37840); assay: alpha-synuclein aggregation, thioflavin T (ThT) fluorescence; type: biochemical
Method: The antiaggregant effect of the compound of formula (Ia) according to the present invention on alpha-synuclein (αS) was evaluated in vitro by measuring the fluorescence intensity of the probe thioflavin T (ThT), a molecule that specifically binds to cross-β structures characteristic of amyloid-like aggregation. The compound of formula (Ia) was dissolved in dimethylsulfoxide to reach a concentration of […]. In this assay, 70 μM of alpha-synuclein was incubated with and without 10 μM, 20 μM and 50 μM of the compound of formula (Ia), under orbital agitation (600 rpm), at 37° C., for 5 days. After the incubation time, Tht was added to each sample and changes in the emission fluorescence spectra (λex=450 and λem=[…]) was monitored using a Horiba Fluoromax CP4 spectrofluorometer.

alpha-synuclein [3] = biological target: T1, alpha-synuclein; assay: alpha-synuclein fibrils by transmission electron microscopy (TEM); type: biochemical; conditions: 20 μM compound; vs alpha-synuclein alone
Method: By using transmission electron microscopy (TEM) we studied the alpha-synuclein aggregation in the presence of 20 μM of the compound of formula (Ia) in the same condition described above. For the samples mounting, 5 μL of a 7 μM alpha-synuclein solution were adsorbed onto a formvar carbon film coated copper grids (Electron Microscopy Sciences) and stained with uranyless.

E. coli ATCC 25922 = assay: MIC, broth dilution (Example 3); type: cell-based; conditions: Escherichia coli, ATCC25922; 18 h at 37° C., MH broth
Method: (§1) Bacterial strains used in this study were: S. aureus (ATCC25923), E. coli (ATCC25922), E. faecalis (ATCC29212) and P. aeruginosa (PA01). Strains were maintained at −80° C. in 15% (v/v) glycerol for cryoprotection. Bacteria were routinely grown in Mueller-Hinton (MH) broth at 37° C.
(§2) The susceptibility of bacterial strains to antibiotics and compounds was determined in microplates using the standard broth dilution method in accordance with the recommendations of the Comité de 1′Antibiogramme de la Société Française de Microbiologie (CA-SFM). (Members of the SFM Antibiogram Committee, R. Int. J. Antimicrob. Agents 2003, 21, 364). Briefly, the Minimal Inhibitory Concentrations (MICs) were determined with an inoculum of 10^5 CFU in 200 μL of MH broth containing two-fold serial dilutions of each drug. […] To determine all MICs, the measurements were independently repeated in triplicate.
(§3) The compound of formula (Ia) according to the invention was tested against clinical isolates Gram-bacteria (P. aeruginosa, E. coli) and Gram+ bacteria (S. aureus, E. faecalis). Minimum inhibitory concentrations (MIC) were tentatively determined and compared to known antibiotic tetracyclines (doxycycline, demeclocycline, chlortetracycline) and to the compound of formula (B) disclosed in Example 1 of the present application. The test was reproduced twice and the average MIC were calculated.

S. aureus ATCC 25923 = assay: MIC, broth dilution (Example 3); type: cell-based
Method: as §1, §2, §3

E. faecalis ATCC 29212 = assay: MIC, broth dilution (Example 3); type: cell-based; conditions: Enterococcus faecalis, ATCC29212; 18 h at 37° C., MH broth
Method: as §1, §2, §3

P. aeruginosa PA01 = assay: MIC, broth dilution (Example 3); type: cell-based; conditions: Pseudomonas aeruginosa, 18 h at 37° C., MH broth
Method: as §1, §2, §3

| Anti aggregant activity at 20 μM (alpha-synuclein [2]) | amount of alpha-synuclein fibril (TEM) (alpha-synuclein [3]) | MIC (E. coli ATCC 25922) | MIC (S. aureus ATCC 25923; Staphylococcus aureus, ATCC25923, 18 h at 37° C., MH broth) | MIC (E. faecalis ATCC 29212) | MIC (P. aeruginosa PA01) | inhibition of alpha-synuclein aggregation (ThT fluorescence) (alpha-synuclein [2]; 10 μM, 20 μM and 50 μM compound, 70 μM alpha-synuclein, 37° C., 5 days, vs control, dose dependent) | Compound | overexpression of p-tau in cortical cell bodies [1] | Reduction of the % of p-tau+ somas ([1]; compounds 3 μM, APO 100 μg/mL, mouse cortical cultures exposed div 7-11 to DF12i) | activity on S. aureus compared with compound of formula (B) (S. aureus ATCC 25923) |
| --- | --- | --- | --- | --- | --- | --- | --- | --- | --- | --- |
| yes |  |  |  |  |  |  | NC(=O)C1=C(O)CC2CC3C(=C(O)C2C1=O)C(=O)c1c(O)ccc(Cl)c1[C@H]3O (some centres unmarked) [Compound of formula (C)] | reduced | +++ |  |
| yes | clearly decreases | > 200 µM | > 200 µM | > 200 µM | > 200 µM | significantly inhibits | C[C@H]1c2cccc(O)c2C(=O)C2=C(O)C3C(=O)C(C(N)=O)=C(O)C[C@@H]3[C@@H](O)[C@@H]21 (stereo partly drawn) [Compound of formula (Ia), (4aS,5R,5aR,6R)-3,5,10,12-tetrahydroxy-6-methyl-1,11-dioxo-1,4,4a,5,5a,6,11,12a-octahydrotetracene-2-carboxamide] |  |  | less active |
